This passage reports IC50 and EC50 results from US20240409556A1, “BENZOPIPERAZINE AND RELATED ANALOGS FOR INHIBITING YAP/TAZ-TEAD” (Springworks Therapeutics, Inc., priority 2023, published 2024).

Format in all cases: cell-based
The test system of experiment [1] is YAP/TAZ-TEAD transcription. Put plainly: Reporter gene assay for measuring the inhibition of YAP/TAZ-TEAD transcription (TEAD-responsive element luciferase reporter in Hek293T cells). The settings on record: Homo sapiens, HEK-293T, 24 h, 24 hours incubation. The essentials:
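HEK293T cells transiently transfected with a TEAD-responsive luciferase reporter were exposed to compounds for 24 h at 37° C/5% CO2, then luminescence was read. Percent inhibition normalised to vehicle (0%) and positive-control inhibitor (100%); IC50 derived.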
In general terms: In a reporter assay the amount or activity of a reporter protein is the signal.

Experiment [2] deals with NCI-H226 mesothelioma cell line. Put plainly: Mesothelioma cell line proliferation assay, NCI-H226 (ATPlite). The settings on record: Homo sapiens, 144 h; NCI-H226 cells, 6 days with compound, cell viability by ATPlite. As to the method:
(§1) Example 57: Activity of Compounds of the Disclosure in Mesothelioma Cell Line Proliferation Assays
(§2) Mesothelioma cell lines, NCI-H226 and NCI-H2052 (both sourced from the ATCC cell culture collection) were plated in 96-well plates (Corning® 96 Well White Polystyrene Microplate clear flat bottom, white polystyrene (TC-Treated)), at 1500 cells/well in full medium (RPMI 1640 ATCC modification with L-glutamine, HEPES, Phenol Red, Sodium Pyruvate, High glucose, Low sodium bicarbonate and 10% fetal bovine serum). Cells were incubated overnight at 37° C. in an incubator with 5% CO2. Then compounds, dissolved in DMSO, were added in dose-response. Cells were incubated with compound dilutions for another 6 days at 37° C. in an incubator with 5% CO2. Cell viability was quantitated using the ATPlite kit (Perkin-Elmer) and the luminescence was read-out using an Envision instrument (Perkin-Elmer). The amount of relative light units produced using the ATPlite kit was used to calculate percent of inhibition.
(§3) The activities of some example compounds are depicted in Table 4. The activity ranges A, B and C refer to EC50 values in the mesothelioma cell line proliferation assay as described as follows: “A”: EC50<1 μM; “B”: 1 μM≤EC50≤10 μM and “C”: EC50>10 μM; NT: not tested.
For orientation: Cellular ATP, detected with luciferase, serves as a proxy for viable cell number.

Experiment [3] deals with NCI-H2052 mesothelioma cell line. The experiment is described as follows: Mesothelioma cell line proliferation assay, NCI-H2052 (ATPlite). The settings on record: Homo sapiens, 144 h; NCI-H2052 cells, 6 days with compound, cell viability by ATPlite. As to the method:
as §1, §2, §3

pEC50, pIC50: −log10 of the molar value.

As usually defined, the pIC50 is −log10 of the IC50, conventionally taken in molar units. A higher pIC50 goes with a small IC50. For orientation: pEC50 means the EC50 on a negative log10 scale, so that one unit is a factor of ten.

With `CNS(=O)(=O)N[C@@H]1C[C@@H]2CN(c3ccc(C(F)(F)F)cc3)c3cccnc3N2C1` [compound 86, N-((6aR,8R)-5-(4-(trifluoromethyl)phenyl)-5,6,6a,7,8,9-hexahydropyrido[3,2-e]pyrrolo[1,2-a]pyrazin-8-yl), N′-methylsulfuric diamide], the pIC50 in experiment [1] was > 6.00. In addition, the figures for the pEC50 in experiment [2] and in experiment [3] were 5.00 to 6.00 and < 5.00, respectively.
Taken in the same sequence, the figures for `O=C(O)[C@@H]1C[C@@H]2CN(c3ccc(C(F)(F)F)cc3)c3cccnc3N2C1` [compound 102, (6aR,8R)-5-(4-(trifluoromethyl)phenyl)-5,6,6a,7,8,9-hexahydropyrido[3,2-e]pyrrolo[1,2-a]pyrazine-8-carboxylic acid] were > 6.00, > 6.00 and > 6.00.
With `CC(=O)N[C@@H]1C[C@@H]2CN(c3ccc(C(F)(F)F)cc3)c3ccc(C)nc3N2C1` [compound 107, N-((6aR,8R)-2-methyl-5-(4-(trifluoromethyl)phenyl)-5,6,6a,7,8,9-hexahydropyrido[3,2-e]pyrrolo[1,2-a]pyrazin-8-yl) acetamide], the pIC50 in experiment [1] was > 6.00. For the same molecule, the pEC50 in experiment [2] and in experiment [3] was > 6.00 throughout.
